According to US8937072B2, “Substituted cyanoaniline compounds, preparation and use thereof” (Sinochem Corporation, priority 2011, dated 2015):
Read-outs that look alike come from different tables or passages of the source.

Columns and labels:
[1] = test system: rice blast; test: microbe, parasite or virus in culture; type: cell-based; conditions: for the inhibition rate against rice blast (%) 0.03 mg/L: Table 21, 0.03 mg/L; for the inhibition rate against rice blast (%) 0.1 mg/L: Table 21, 0.1 mg/L; for the inhibition rate against rice blast (%) 0.3 mg/L: Table 21, 0.3 mg/L; for inhibition at 0.03 µg/mL: read-out: the inhibition rate against rice blast (%) 0.03 mg/L; for inhibition at 0.1 µg/mL: read-out: the inhibition rate against rice blast (%) 0.1 mg/L; for inhibition at 0.3 µg/mL: read-out: the inhibition rate against rice blast (%) 0.3 mg/L
[2] = test system: cucumber downy mildew; test: Protectant activity in vivo (whole plant) against cucumber downy mildew
Summary of the method: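 Whole plants sprayed with test solution, water plus 0.1% Tween-80 and no more than 5% solvent, then inoculated with the pathogen after 24 h. Plants held in humidity chamber or directly in greenhouse depending on fungus. Disease control scored by eye at about 7 days.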

[3] = test system: cucumber gray mold; test: Activity in vitro (96-well, High Through Put): inhibition rate against cucumber gray mold; type: cell-based; conditions: for inhibition at 25 µg/mL: dose 25 mg/L
Procedure: The method is as followed: High Through Put is used in the test. The compound is dissolved in a proper solvent to become a testing solution whose concentration is designed. The solvent is selected from acetone, methanol, DMF and so on according to their dissolving capability to the sample. In a no animalcule condition, the testing solution and pathogens suspension are added into the cells of 96 cells culture board, which then should be placed in the constant temperature box. 24 hours later, pathogen germination or growth can be investigated by eyeballing, and the activity in vitro of the compound is evaluated based on germination or growth of control treatment.

[4] = test system: corn rust; test: Protectant activity in vivo (whole plant) against corn rust
Procedure: The method is as followed: The whole plant is used in this test. The compound is dissolved in a proper solvent to get mother solution. The proper solvent is selected from acetone, methanol, DMF and so on according to their dissolving capability to the sample. The volume rate of solvent and testing solution (v/v) is equal to or less than 5%. The mother solution is diluted with water containing 0.1% tween-80 to get the testing solution whose concentration is designed. The testing solution is sprayed to the host plant by a special plant sprayer. The plant is inoculated with fungus after 24 hours. According to the infecting characteristic of fungus, the plant is stored in a humidity chamber and then transferred into greenhouse after infection is finished. And the other plants are placed in greenhouse directly. The activity of compound is obtained by eyeballing after 7 days in common.

[5] = Pyricularia oryzae, read-out: inhibition rate against rice blast
[6] = 0.9 mg/L, read-out: the inhibition rate against cucumber gray mold (%)
[7] = 2.8 mg/L, read-out: the inhibition rate against cucumber gray mold (%)
[8] = 8.3 mg/L, read-out: the inhibition rate against cucumber gray mold (%)

## N#Cc1c(Cl)c(Cl)c(Nc2cc(Cl)cnc2Cl)c(C#N)c1Cl [Compound B-133]
[1]
  the inhibition rate against rice blast (%) 0.03 mg/L: 100%
  the inhibition rate against rice blast (%) 0.1 mg/L: 100%
  the inhibition rate against rice blast (%) 0.3 mg/L: 100%
[2]; 12.5 mg/L
  the protectant activity (%) against cucumber downy mildew: 95%
[2]; 25 mg/L
  the protectant activity (%) against cucumber downy mildew: 100%
[2]; 50 mg/L
  the protectant activity (%) against cucumber downy mildew: 100%
[2]; 100 mg/L
  the protectant activity (%) against cucumber downy mildew: 100%
[2]; dose 6.25 mg/L
  protectant activity against cucumber downy mildew in vivo: 80%
[2]; dose 25 mg/L
  protectant activity against cucumber downy mildew in vivo: 100%
[2]; dose 50 mg/L
  protectant activity against cucumber downy mildew in vivo: 100%
[2]; dose 100 mg/L
  protectant activity against cucumber downy mildew in vivo: 100%

## N#Cc1c(Cl)c(Cl)c(C#N)c(Nc2c(F)cc([N+](=O)[O-])cc2F)c1Cl [Compound C-45]
[1]
  the inhibition rate against rice blast (%) 0.03 mg/L: 100%
  the inhibition rate against rice blast (%) 0.1 mg/L: 100%
  the inhibition rate against rice blast (%) 0.3 mg/L: 100%
[3]; 0.3 mg/L
  the inhibition rate against cucumber gray mold (%): 100%
[3]; 0.9 mg/L
  the inhibition rate against cucumber gray mold (%): 100%
[3]; 2.8 mg/L
  the inhibition rate against cucumber gray mold (%): 100%
[3]; 8.3 mg/L
  the inhibition rate against cucumber gray mold (%): 100%

## N#Cc1c(Cl)c(Cl)c(C#N)c(Nc2c(Cl)cc([N+](=O)[O-])cc2Br)c1Cl [Compound C-49]
[1]
  the inhibition rate against rice blast (%) 0.03 mg/L: 100%
  the inhibition rate against rice blast (%) 0.1 mg/L: 100%
  the inhibition rate against rice blast (%) 0.3 mg/L: 100%
[4]; 6.25 mg/L
  the protectant activity (%) against corn rust: 50%
[4]; 25 mg/L
  the protectant activity (%) against corn rust: 80%
[4]; 100 mg/L
  the protectant activity (%) against corn rust: 90%
[4]; 400 mg/L
  the protectant activity (%) against corn rust: 100%
[4]; dose 400 mg/L
  protectant activity against corn rust in vivo: 100%

## N#Cc1c(Cl)c(Cl)c(C#N)c(Nc2cc(Cl)cnc2Cl)c1Cl [Compound C-118]
[1]
  the inhibition rate against rice blast (%) 0.03 mg/L: 100%
  the inhibition rate against rice blast (%) 0.1 mg/L: 100%
  the inhibition rate against rice blast (%) 0.3 mg/L: 100%
[2]; dose 400 mg/L
  protectant activity against cucumber downy mildew in vivo: 100%

## N#Cc1c(Cl)c(Cl)c(C#N)c(Nc2c(Cl)cncc2Cl)c1Cl [Compound C-124]
[1]
  the inhibition rate against rice blast (%) 0.03 mg/L: 100%
  the inhibition rate against rice blast (%) 0.1 mg/L: 100%
  the inhibition rate against rice blast (%) 0.3 mg/L: 100%
[2]; dose 50 mg/L
  protectant activity against cucumber downy mildew in vivo: 100%
[2]; dose 100 mg/L
  protectant activity against cucumber downy mildew in vivo: 100%
[2]; dose 400 mg/L
  protectant activity against cucumber downy mildew in vivo: 100%

## N#Cc1c(Cl)c(Cl)c(C#N)c(Nc2ncccn2)c1Cl [Compound C-126]
[1]; in vitro, dose 8.3 mg/L
  inhibition rate against rice blast: 80%
[2]; dose 400 mg/L
  protectant activity against cucumber downy mildew in vivo: 100%

## CN(C)c1ccc(Nc2c(Cl)c(Cl)c(C#N)c(Cl)c2C#N)cc1 [KC23]
[1]; [5]
  inhibition at 25 µg/mL: 0%
[1]; Pyricularia oryzae
  inhibition at 0.03 µg/mL: 0%
  inhibition at 0.1 µg/mL: 0%
  inhibition at 0.3 µg/mL: 0%
[3]; 0.3 mg/L
  inhibition at 0.3 µg/mL: 0%
[3]; [6]
  inhibition at 0.9 µg/mL: 0%
[3]; [7]
  inhibition at 2.8 µg/mL: 0%
[3]; [8]
  inhibition at 8.3 µg/mL: 0%
[3]; in vitro
  inhibition at 25 µg/mL: 0%

## N#Cc1c(F)c(F)c(Nc2c(Cl)c(F)nc(F)c2Cl)c(F)c1C#N [KC28]
[1]; [5]
  inhibition at 2.8 µg/mL: 0%
  inhibition at 8.3 µg/mL: 50%
  inhibition at 25 µg/mL: 80%
[1]; Pyricularia oryzae
  inhibition at 0.03 µg/mL: 0%
  inhibition at 0.1 µg/mL: 0%
  inhibition at 0.3 µg/mL: 0%
[3]; 0.3 mg/L
  inhibition at 0.3 µg/mL: 0%
[3]; [6]
  inhibition at 0.9 µg/mL: 0%
[3]; [7]
  inhibition at 2.8 µg/mL: 0%
[3]; [8]
  inhibition at 8.3 µg/mL: 0%
[3]; in vitro, dose 8.3 mg/L, read-out: inhibition rate against cucumber gray mold
  inhibition at 8.3 µg/mL: 0%
[3]; in vitro
  inhibition at 25 µg/mL: 80%
